Legend:
[1] = tested on: sodium channel current (INa); assay: Patch clamp peak INa in adult mouse cardiomyocytes treated with antimycin A; assay type: cell-based
Procedure: FIG. 9A is a bar graph showing that MitoQ restored INa that was decreased by antimycin A. The peak INa at −30 mV in adult mouse cardiomyocytes was decreased in antimycin A (5-10 μM) compared with SCNSA alone. Treatment using MitoQ at 10 nM with a 1-2 hour preincubation time restored INa. The SCNSA group is the untreated group. For patch clamp, MitoQ and antimycin A were also applied to the patch clamp bath solution during the entire time of patching, respectively or together. INa was measured at room temperature. Data shown in FIGS. 9A and 9B were obtained from 3 different mice, and 16-28 cells were used on average in each group.
In addition to MitoTEMP and NAD^+, another mitochondrial-targeted antioxidant, MitoQ, was tested. […] is an antibiotic that induces apoptosis and inhibits the mitochondrial electron transport chain, thereby inducing oxidative stress and generating reactive oxygen species. Because antimycin A is known to generate ROS (for example, increasing superoxide formation), it decreases the sodium channel current (INa). Additionally, antiomycin A causes damage to mitochondrial DNA, lipids, and proteins in cells treated with the antibiotic. […] Mitochondrial ROS production in response to increased antimycin A levels was monitored by MitoSox Red with SCNSA cells and myocytes (FIGS. 9A and 9B). […]

ROS = ROS density by MitoSox dye in adult mouse cardiomyocytes treated with antimycin A; assay type: cell-based; details: MitoQ 1-2 hours pretreatment, 10 nM
Procedure: FIG. 9B is a bar graph showing that Mito Q decreased ROS that was generated by antimycin A. ROS density in adult mouse cardiomyocytes was measured using MitoSox dye. Adult mouse cardiomyocytes were isolated, and MitoQ was applied for 1-2 hours pretreatment.
In addition to MitoTEMP and NAD^+, another mitochondrial-targeted antioxidant, MitoQ, was tested. […] is an antibiotic that induces apoptosis and inhibits the mitochondrial electron transport chain, thereby inducing oxidative stress and generating reactive oxygen species. Because antimycin A is known to generate ROS (for example, increasing superoxide formation), it decreases the sodium channel current (INa). Additionally, antiomycin A causes damage to mitochondrial DNA, lipids, and proteins in cells treated with the antibiotic. MitoSOX Red is a fluorescent mitochondrial probe used to measure ROS production. Mitochondrial ROS production in response to increased antimycin A levels was monitored by MitoSox Red with SCNSA cells and myocytes (FIGS. 9A and 9B).
Isolated adult mouse cardiomyocytes were pretreated with MitoQ.

[2] = tested on: SCN5A: sodium channel, voltage gated type V alpha subunit; assay: INa in SCN5A cells treated with NADH; assay type: cell-based
Procedure: FIG. 1A is a graph showing a series of sodium current traces measuring a INa reduction induced by NADH (nicotinamide adenine dinucleotide) (SCN5A+100 μM [NADH]) compared to normal INa (SCN5A), which can be restored by mitoTEMPO (SCN5A+100 μM [NADH]+5 μM [mitoTEMPO]). SCN5A: sodium channel, voltage gated type V alpha subunit
FIG. 1B is a bar graph showing INa reduction induced by NADH (SCN5A+100 μM [NADH]) compared to normal INa (SCN5A), which can be restored by mitoTEMPO (SCN5A+100 μM [NADH]+5 μM [mitoTEMPO]), which is also compared to mitoTEMPO (5 μM [mitoTEMPO]).
The SCNSA group is the untreated cells group, and the others were treated with 100 μmol/L NADH in the absence or presence of NAD from 50 to 1000 μmol/L.
The SCN5A group is the untreated cells group, and the others were treated with 100 μmol/L NADH in the absence or presence of NAD from 50 to 1000 μmol/L.

mitochondrial ROS [3] = assay: Mitochondrial ROS by MitoSox Red confocal microscopy in PL-treated cells and DOCA myocytes; assay type: cell-based, mouse
Procedure: FIG. 6A is a photo showing representative confocal microscopy images of myocytes of 3 groups. Scale bar, 10 μm. Mitochondrial ROS production in response to intracellular NADH was monitored by MitoSox Red with SCNSA cells and myocytes. The control groups were untreated, the pyruvate and lactate (PL) groups were treated with 1 and 10 mmol/L PL buffer, respectively, for 10 minutes, and the NAD-PL groups were incubated with 500 μmol/L NAD^+ for ˜6 hours and then treated with PL buffer for 10 minutes.
FIG. 6C is a photo showing that mitochondrial ROS levels were increased in DOCA (deoxycorticosterone) myopathic mice and reduced by NAD treatment (500 μmol/L). Representative confocal microscopy images of mitochondrial ROS levels were obtained with treatment of myocytes monitored with MitoTracker Green and MitoSox Red. The white scale bar is 20 μm. […]
Mitochondrial ROS production in response to intracellular NADH was monitored by MitoSox Red with SCNSA cells and myocytes (FIGS. 6A and 6B). […]
Mitochondrial ROS levels were increased in DOCA myopathic mice and reduced by NAD^+ treatment (500 μmol/L) (FIG. 6C. Representative confocal microscopy images of mitochondrial ROS levels were obtained with treatment of myocytes monitored with MitoTracker Green and MitoSox Red. The white scale bar is 20 μm. The extremely red cells are dying myocytes that have very high levels of ROS.

mitochondrial ROS [4] = assay: Mitochondrial ROS by flow cytometry in DOCA mice injected with NAD+; assay type: in vivo, mouse; details: 100 mg/kg injected in the neck, P>0.05
Procedure: Three to four animals and ˜10,000 myocytes from each animal were tested in each group in flow cytometry (FIG. 8A).

cardiac INa = assay: Peak INa of DOCA mouse cardiomyocytes treated with NAD+; assay type: cell-based; details: 500 μmol/L
Source text: NAD^+ restored INa decreased by mitoROS in PL-treated cells and in DOCA myocytes.

INa = INa in cardiomyopathy of DOCA mice injected with NAD; assay type: in vivo, mouse; details: injection 100 mg/kg
Procedure: Reduced INa in cardiomyopathy of DOCA was corrected by injection of NAD (100 mg/kg), which had no effect on the sham group (FIG. 8B).

[5] = tested on: cardiac Na+ channel (Nav1.5); assay: Whole-cell patch clamp recording of Na+ currents (INa) in cardiomyocytes isolated from MI mice treated with antioxidant; assay type: in vivo, mouse
Procedure: (§1) The following materials and methods were used to generate the data described herein. MI was induced in 12-week old C57BL/6 mice by coronary artery occlusion. Sham-operated mice were used as controls. Two weeks following surgery, MI mice were either given a mitochondria-targeted antioxidant, mitoTEMPO (0.7 mg/kg/day, intraperitoneally), or left untreated for two weeks. Cardiomyocytes isolated from the scar border of MI mice or from the left ventricular (LV) anterior wall of sham-operated mice were utilized for whole-cell patch clamp recording of Na^+currents (INa) and for measurements of mitochondrial reactive oxygen species (mitoROS) using flow cytometry. Nav1.5 protein expression levels were determined in the LV from MI and sham-operated mice. Echocardiography was performed 2- and 4-weeks following MI. Oxidized nicotinamide adenine dinculeotide used for experiments was purchased from Sigma-Aldrich, catalog number N1636 “β-Nicotinamide adenine dinucleotide hydrate, ≧99%, Synonyms: NAD^+, β-DPN, β-NAD, Coenzyme 1, Cozymase, DPN, Diphosphopyridine nucleotide, NAD, Nadide” and dissolved in water. MitoQ was used at 10 nM.
MI was induced in 12-week old C57BL/6 mice by coronary artery occlusion. Sham-operated mice were used as controls. […]
Whole cell INa were measured using the whole-cell patch clamp technique in voltage-clamp mode at room temperature.

[6] = tested on: mitochondrial reactive oxygen species (mitoROS); assay: mitoROS by flow cytometry (MitoSOX Red) in cardiomyocytes of treated MI mice; assay type: in vivo, mouse
Procedure: The following materials and methods were used to generate the data described herein. MI was induced in 12-week old C57BL/6 mice by coronary artery occlusion. Sham-operated mice were used as controls. Two weeks following surgery, MI mice were either given a mitochondria-targeted antioxidant, mitoTEMPO (0.7 mg/kg/day, intraperitoneally), or left untreated for two weeks. Cardiomyocytes isolated from the scar border of MI mice or from the left ventricular (LV) anterior wall of sham-operated mice were utilized for whole-cell patch clamp recording of Na^+currents (INa) and for measurements of mitochondrial reactive oxygen species (mitoROS) using flow cytometry. Nav1.5 protein expression levels were determined in the LV from MI and sham-operated mice. Echocardiography was performed 2- and 4-weeks following MI. […]
A BD LSR II (BD Biosciences) flow cytometer was used for high-throughput evaluation of mitoROS, mitochondrial volume, and cell survival. […] Separate suspensions were stained with propidium iodide (10 μg/mL) and evaluated at 617 nm to measure for cell integrity. Five thousand gated cells were recorded in each sample. […]

Connexin 43 = Connexin 43 protein level expression in heart tissue of MI mice; assay type: in vivo, mouse
Source text: FIG. 5A is a blot showing Connexin 43 protein level expressions and Glyceraldehyde 3-phosphate dehydrogenase (GAPDH) protein level expressions in heart tissue of Sham, MI mice and MI mice treated with mitoTEMPO (MI tx MT).
FIG. 5B is a bar graph showing Connexin 43/GAPDH protein expression in Sham, MI mice and MI mice treated with mitoTEMPO (MI tx MT).
MI was induced in 12-week old C57BL/6 mice by coronary artery occlusion. Sham-operated mice were used as controls. Two weeks after surgery, MI mice were either given a mitochondria-targeted antioxidant, mitoTEMPO (0.7 mg/kg/day, intraperitoneally), or left untreated for two weeks (Rutledge C A et al. J Am Coll Cardiol 2014; 63:928-934).

[7] = Echocardiography 2 and 4 weeks following MI; assay type: in vivo, mouse; details: MI mice
Procedure: as §1

[8] = rodents treated 0.7 mg/kg/day intraperitoneally after ischemic insult

Compound: COC1=C(OC)C(=O)C(CCCCCCCCCC[P+](c2ccccc2)(c2ccccc2)c2ccccc2)=C(C)C1=O [MitoQ, 10-(6′-Ubiquinolyl)decylthriphenylphosphonium bromide]
- INa decreased by antimycin A, effect of antioxidant ([1]; 10 nM, 1-2 hour preincubation, antimycin A 5-10 μM, peak INa at −30 mV, room temperature): restored INa
- ROS (MitoSOX density) generated by antimycin A (ROS): elevated MitoSOX density
- ROS (MitoSOX density) generated by antimycin A (ROS; listed as Mito Q): decreased ROS

Compound: NC(=O)c1ccc[n+]([C@@H]2O[C@H](COP(=O)([O-])OP(=O)(O)OC[C@H]3O[C@@H](n4cnc5c(N)ncnc54)[C@H](O)[C@@H]3O)[C@@H](O)[C@H]2O)c1 [NAD^+, β-Nicotinamide adenine dinucleotide hydrate]
- inhibition of NADH on cardiac INa, effect of extracellular NAD ([2]; 100 μmol/L NADH, NAD from 50 to 1000 μmol/L): reversed the inhibition of NADH on cardiac INa in a dose-dependent manner
- mitochondrial ROS levels in DOCA myopathic mice myocytes (mitochondrial ROS [3]; 500 μmol/L): reduced
- MitoROS level increased by PL (mitochondrial ROS [3]; 500 μmol/L NAD+ for ~6 hours, then PL buffer 10 minutes): Decreased
- mitochondrial ROS (mitochondrial ROS [4]): 1.1±0.1 fold of sham
- peak INa of DOCA mouse cardiomyocytes (cardiac INa): restored INa to the sham level
- reduced INa in cardiomyopathy of DOCA (INa; DOCA mice): corrected
- INa, effect on the sham group (INa; sham mice): no effect

Compound: CC1(C)CC(NC(=O)C[P+](c2ccccc2)(c2ccccc2)c2ccccc2)CC(C)(C)N1[O] [mitoTEMPO, (2-(2,2,6,6-Tetramethylpiperidin-1-oxyl-4-ylamino)-2-oxoethyl)triphenylphosphonium chloride monohydrate]
- INa reduced by NADH, effect of antioxidant ([2]; SCN5A + 100 μM NADH + 5 μM mitoTEMPO): restored
- peak INa density ([5]; MI mice, 0.7 mg/kg/day intraperitoneally for two weeks, isolated LV cardiomyocytes, sham −24.0±1.8, untreated MI −14.3±1.4): −19.4±0.8 pA/pF
- INa activity, effect in words [5, 8]: statistically significant increase
- mitoROS level ([6]; MI mice, 0.7 mg/kg/day intraperitoneally for two weeks, scar border cardiomyocytes, untreated MI 1.5±0.2 fold): 1.2±0.2 fold
- mitochondrial ROS, effect in words [6, 8]: statistically significant decrease
- effect on connexin 43 downregulation in MI (Connexin 43; MI mice): no effect
- Connexin 43 level, of sham levels (Connexin 43; treated MI mice, untreated MI 56%, P<0.01 vs sham, ns vs MI): 41%
- echocardiography parameters, untreated vs treated groups [7]: no significant differences

Compound: antimycin A
- peak INa at −30 mV, effect of antimycin A ([1]; 5-10 μM, compared with SCN5A alone (untreated)): decreased
